Data on nine molecules can be found in article PMC7235819, “Advanced Resistance Studies Identify Two Discrete Mechanisms in Staphylococcus aureus to Overcome Antibacterial Compounds that Target Biotin Protein Ligase” (Antibiotics, 2020).

In general, stoichiometry N refers to a count of units in the complex or per binding partner. In general, Km refers to the substrate concentration at which the rate is half of its maximum.

The subject of series [1] is T1, Staphylococcus aureus NCTC-8325.
T1 construct: NCTC 8325
Description: microbe, parasite or virus in culture. Set-up: antimicrobial susceptibility assay, MIC, growth inhibition of S. aureus parent strain. The conditions noted are these: NCTC8325. On the procedure: The ability of S. aureus to develop resistance to BASA was investigated using both spontaneous resistance and serial passage approaches. The S. aureus NCTC 8325 strain was selected due to the availability of a sequenced reference genome for comparative sequence analysis. To measure the rate at which spontaneous resistance develops, 10^9 S. aureus cells were plated onto media containing four times the MIC of BASA. No resistant mutants grew after 24 hours which equates to a calculated resistance frequency of <10^−9 at this inhibitor concentration. BASA resistant S. aureus strains were subsequently generated by the serial passage of seven populations of S. aureus NCTC 8325 in sub-inhibitory concentrations of BASA for 18 days at which time individual colonies were isolated. These were then passaged on non-selective media to verify that the inherited resistance was genetically stable. The sensitivity of the strains to BASA was then established using antimicrobial sensitivity assays (Table 2 and Figure S8A). The isotypic parent strain was highly sensitive to BASA, with an MIC of 0.0625 µg/mL. […] To determine if there was a fitness cost associated with these mutations, in vitro growth curves for the seven strains were analyzed and doubling times calculated (Table 2, Figure S8B). […] To test if the resistance mechanisms identified were specific for BASA, all seven strains were subjected to antibacterial susceptibility assays against a panel of diverse antibiotics that included two known BPL inhibitors, namely biotinol-5′-AMP [32] and BPL223 (compound 4c in [30]). The evolved resistance mechanisms appeared specific to the BPL inhibitors as there was no change in susceptibility to β-lactams amoxicillin and methicillin (Table S1).

In series [2] the target is T2, biotin protein ligase (SaBPL) (Staphylococcus aureus, UniProt A0A3A5LBF0).
T2 construct: gene birA; recombinant SaBPL
Description: native nESI-MS of holo protein (homodimer). It counts as binding.

Series [3] deals with T3, biotin protein ligase (SaBPL-D200E) (Staphylococcus aureus, UniProt A0A3A5LBF0, D200E).
T3 construct: gene birA; recombinant SaBPL-D200E
Description: native nESI-MS of holo protein (monomer). It counts as binding.

Series [4] addresses Staphylococcus aureus biotin protein ligase (SaBPL), wildtype (S. aureus Mu50). Description: native MS; native nESI-MS (Waters Synapt G1 HDMS), holo protein (biotinyl-5'-AMP bound); 10 uM wildtype SaBPL; SaBPL-D200E at 1.4 to 90 uM; monomer to dimer.
The subject of series [5] is O=C(O)CCCC[C@@H]1SC[C@@H]2NC(=O)N[C@@H]21. Description: purified protein. The conditions noted are these: MgATP biotin-binding pocket (biotin-binding loop residues […]).
Series [6] shares this test system. Description: in vitro protein biotinylation assay, Km. Type of series: biochemical, Staphylococcus aureus. The conditions noted are these: MgATP biotin-binding pocket (biotin-binding loop residues […]).
The target of series [7] is SaBPL (biotin protein ligase, BirA) wild type (Staphylococcus aureus Mu50, UniProt A0A0H3JRH8 1-323). Description: EMSA; 100 uM biotin + MgATP, 2.5% DMSO (control for BASA); EMSA adapted from cited protocols; buffer, salt, pH and temperature not given; BASA or biotin at 100 uM with 2.5% DMSO in the Fig S7 assays. The following applies: protein: recombinant. (In general: In EMSA bound probe runs differently from free probe, usually more slowly.)

≈ marks a conversion by molar mass, not a printed value.

With `CC1(C)S[C@@H]2[C@H](NC(=O)[C@H](N)c3ccc(O)cc3)C(=O)N2[C@H]1C(=O)O` [amoxicillin], the MIC in series [1] stood at 16 µg/mL (≈ 43.8 µM).

In the case of `Nc1ncnc2c1ncn2[C@@H]1O[C@H](COP(=O)(O)OCCCCC[C@@H]2SC[C@@H]3NC(=O)N[C@@H]32)[C@@H](O)[C@H]1O` [biotinol-5'-AMP, biotinol-5′-AMP], the MIC in series [1] was 1 µg/mL (≈ 1.79 µM).

On to `Nc1ncnc2c1ncn2[C@@H]1O[C@H](COP(=O)(O)OC(=O)CCCC[C@@H]2SC[C@@H]3NC(=O)N[C@@H]32)[C@@H](O)[C@H]1O` [biotinyl-5′-AMP], for which the “native nESI-MS of holo protein (homodimer)” value in series [2] is on record as “SaBPL underwent a well-characterized monomer-to-dimer transition induced by biotinyl-5′-AMP (Figure 3A,B)”. In addition, the “native nESI-MS of holo protein (monomer)” value in series [3] is on record as “native nESI–MS provided sufficient mass resolution to confirm the presence of bound biotinyl-5′-AMP”.

Consider `COc1cccc(OC)c1C(=O)N[C@@H]1C(=O)N2[C@@H]1SC(C)(C)[C@@H]2C(=O)O` [methicillin], for which the MIC in series [1] came out at 2 µg/mL (≈ 5.26 µM).

With “Staphylococcus aureus biotin protein ligase (SaBPL), wildtype (enzyme)”, the stoichiometry N in series [4] was 2.

For “biotin protein ligase (SaBPL) (Staphylococcus aureus)”, the Km in series [5] was 1.8 ± 0.3 µM.

On to “biotin protein ligase (SaBPL-D200E) (Staphylococcus aureus; D200E)”, for which, in series [6], the Km amounted to 3.8 ± 0.4 µM.

B1: bioY (dsDNA)
DNA 1: AACTTATTGTAAACTTTTCATTTCTTAAAGTTTACAATGGTGCT
DNA 2: AGCACCATTGTAAACTTTAAGAAATGAAAAGTTTACAATAAGTT
For B1, in series [7] (blunt), the binding result is listed as “binds”.

B2: bioO (dsDNA)
DNA 1: CCTTAAATGTAAACTTTTATAATTAATAAGTTTACATTTAAG
DNA 2: CCTTAAATGTAAACTTATTAATTATAAAAGTTTACATTTAAGG
With B2, the binding result in series [7] (bottom strand 5' overhang 1 nt as printed (top 42 nt lacks the final G)) is “binds”.
